Experiments:
Hdm2/HdmX complex = Hdm2/HdmX complex (Homo sapiens, UniProt O15151+Q00987); experiment: In vitro ubiquitination assay with recombinant proteins
Experimental: The ubiquitinated p53 (Ub-p53) bands are detected as shown.
The reaction products are resolved by SDS-PAGE followed by immunoblotting with p53 antibody DO-1. For HdmX ubiquitination in vitro, reactions are performed in a 50-μl volume. After completion of the reactions, 10 μl is used for direct immunoblotting to reveal HdmX ubiquitination (a smearing pattern) with FLAG antibody. 40 μl reactions are used for denaturing with 1% SDS followed by dilution with 800 μl of 20 mM Tris, pH7.5, 0.5% NP40, and 120 mM NaCl. The processed reaction products are used for immunoprecipitation with ubiquitin antibody followed by immunoblotting for FLAG-HdmX using anti-FLAG antibodies.

PARP cleavage = conditions: p53 null versus p53 wild type HCT116
Experimental: Actin is used as internal controls for total protein loading.
After the lysates are cleared by centrifugation at 15,000 g for 20 minutes at 4° C., the total protein is determined using Bio-Rad protein assay solution. Up to 50 μg of total protein is denatured in 2×SDS sample loading buffer for 5 minutes at 95° C., separated on 10-15% SDS-PAGE gels, and electrotransferred to the Pure Nitrocellulose Membrane (Bio-Rad, Hercules, Calif.) using semi-dry electrophoretic transfer. After the nonspecific binding sites on the membranes are blocked with 5% skim milk in TBS-T (20 mM Tris-HCl pH 7.5, 0.137 M NaCl, and 0.01% Tween 20) for 3 hours at room temperature with constant shaking, the membranes are incubated in TBS-T containing the relevant primary antibody (1: 500-1000) and 5% BSA overnight at 4° C. After washing with TB S-T three times, the membrane is incubated in 5% skim milk in TBS-T buffer containing the appropriate secondary anti-IgG antibody (1:5000) at room temperature for 1 h with constant shaking. The protein of interest is detected using Western Lightning®-ECL (Perkin Elmer, Waltham, Mass.) and visualized by exposure for various times (5-60 seconds). […]

[1] = test system: DU145 prostate cancer cells; experiment: Cell growth inhibition, cell counting after 72 h; type: cell-based, human
Text: Each dot is the mean±SD derived from 3 independent assays.
Irinotecan and topotecan are the only two analogs derived from direct modification of camptothecin (CPT) that are approved by the FDA for cancer treatment in clinical practice. […] In this regard, we obtain one DU145 parental prostate cancer cell line and two DU145-derived sub-lines with Top1 mutations (DU145-RC0.1, DU145-RC1).

Sequence of Hdm2/HdmX complex (Q00987 whole entry): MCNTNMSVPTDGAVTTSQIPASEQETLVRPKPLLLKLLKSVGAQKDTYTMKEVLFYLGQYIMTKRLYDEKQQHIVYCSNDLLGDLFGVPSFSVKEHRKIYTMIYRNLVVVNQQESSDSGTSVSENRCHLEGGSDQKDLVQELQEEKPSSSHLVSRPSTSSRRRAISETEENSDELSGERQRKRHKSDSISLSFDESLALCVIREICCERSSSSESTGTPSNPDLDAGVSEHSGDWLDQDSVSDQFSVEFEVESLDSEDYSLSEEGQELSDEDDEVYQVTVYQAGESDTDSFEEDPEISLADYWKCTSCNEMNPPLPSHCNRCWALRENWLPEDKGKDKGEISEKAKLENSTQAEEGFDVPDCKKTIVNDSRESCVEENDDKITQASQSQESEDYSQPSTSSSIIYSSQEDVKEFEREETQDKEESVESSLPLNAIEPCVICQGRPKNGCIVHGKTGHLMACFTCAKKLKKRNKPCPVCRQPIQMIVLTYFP
Sequence of Hdm2/HdmX complex (O15151 whole entry): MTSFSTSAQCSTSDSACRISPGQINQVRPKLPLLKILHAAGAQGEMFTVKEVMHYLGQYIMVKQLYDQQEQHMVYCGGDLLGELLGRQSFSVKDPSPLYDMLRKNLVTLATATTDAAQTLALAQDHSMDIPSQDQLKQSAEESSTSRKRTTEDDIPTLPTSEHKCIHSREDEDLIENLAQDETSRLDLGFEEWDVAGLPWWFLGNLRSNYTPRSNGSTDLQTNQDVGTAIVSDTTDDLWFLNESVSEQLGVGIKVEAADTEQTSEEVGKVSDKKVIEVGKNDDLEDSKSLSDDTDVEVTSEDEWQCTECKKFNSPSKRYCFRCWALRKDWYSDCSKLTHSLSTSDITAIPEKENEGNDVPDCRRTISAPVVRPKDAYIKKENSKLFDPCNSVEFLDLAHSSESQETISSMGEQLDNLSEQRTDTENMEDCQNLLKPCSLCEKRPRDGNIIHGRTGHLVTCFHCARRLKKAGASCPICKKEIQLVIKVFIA
Text for FaDu and SW620 tumors: Three types of human cancer xenografts are used in the studies: 1) from human head-&-neck cancer cell line (FaDu)-established xenografts; 2) from human colon cancer cell line (SW620)-established xenografts; and 3) from human acute lymphocytic leukemia cell line (EU-4)-established xenografts. All in vivo experiments use either nude or severe combined immunodeficiency (SCID) mice. Human tumor cell line-derived xenografts are initially established by subcutaneously injecting 1×10^6 cultured cancer cells. The derived tumors are then passed several generations in mice by transplanting 40-50 mg non-necrotic tumor mass via a trocar after the xenograft tumor reached ˜1000 mm^3. Treatment is initiated 7 days after tumor transplantation when the tumor reached 200-250 mm^3, at which time the treatment was designated as Day 0. Six to 12-week-old female SCID mice used in the studies. All animal experiments are performed in accordance with IACUC-approved animal protocols. Mice were housed 5 mice per cage with water and food ad libitum.

CC[C@@]1(O)C(=O)OCc2c1cc1n(c2=O)Cc2cc3cc4c(cc3nc2-1)OCO4 [FL118]
Hdm2-mediated HdmX ubiquitination in vitro (Hdm2/HdmX complex): stimulates Hdm2-mediated HdmX ubiquitination in a concentration-dependent manner | Mdm2-MdmX mediated p53 polyubiquitination in vitro (Hdm2/HdmX complex): moderately inhibits | PARP cleavage (PARP cleavage): more effective to induce PARP cleavage in p53 null HCT116 colon cancer cells than in p53 wild type HCT116 cells | IC50 ([1]; DU-145): 4.56 nM | more effective than CPT, SN-38 and topotecan to inhibit cancer cell growth ([1]; parental Du145 cell line): 10-40 fold | mouse deaths (FaDu and SW620 tumors; large tumors, stored FL118 solution, attributed to possible Tumor Lysis Syndrome): death of two mice on Day 37 | antitumor activity of stored solution (FaDu and SW620 tumors; ready-to-use solution stored at 4° C. for 6 months, 1.5 mg/kg weekly for 4 weeks): as effective as the newly formulated solution
